Assay [1] concerns MDA-MB-453. Kind of assay: drug sensitivity score (DSS), single agent (DSS (weighted AUC score)); higher = more sensitive (stronger viability decrease); extreme values may be limits of the assay. Particulars: BLU9931 0 nM; 72 h. A digest of the protocol: (§1)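 Compounds from the FIMM Oncology set were predispensed in singlicate at five 10-fold dilutions (10,000-fold range) on 384-well plates. Each well then received 2000 MDA-MB-453 cells in medium with or without an FGFR4 inhibitor (100 nM final) and was kept at 37 °C, 5% CO2. Cellular ATP was read with CellTiterGlo 2.0 after 72 h and normalised per plate to percent viability from control wells. The drug sensitivity score is a weighted area under a four-parameter logistic fit.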

Assay [2] deals with MDA-MB-453. Kind of assay: drug sensitivity score (DSS), in combination with BLU9931 (DSS (weighted AUC score)); higher = more sensitive (stronger viability decrease); extreme values may be limits of the assay. The conditions noted are these: BLU9931 100 nM; 72 h. A digest of the protocol: as §1

For `Oc1ncnc2[nH]ncc12` [Allopurinol], the drug sensitivity score with MDA-MB-453 [1] was 0.1; in the assay on MDA-MB-453 [2], 0.3.
As to `Cc1nc(NC(=O)N2CCC[C@H]2C(N)=O)sc1-c1ccnc(C(C)(C)C(F)(F)F)c1` [Alpelisib], the figures for the drug sensitivity score with MDA-MB-453 [1] and in the assay on MDA-MB-453 [2] were 7.2 and 8, respectively.
For `O=C(Nc1cc(Oc2cc(F)c(NC(=O)C3(C(=O)Nc4ccc(F)cc4)CC3)cc2F)ccn1)C1CC1` [Altiratinib] the same measures were 7.1 and 3.5.
The matching figures for `CN1CC[C@H](c2c(O)cc(O)c3c(=O)cc(-c4ccccc4Cl)oc23)[C@H](O)C1` [Alvocidib]: 14.5 and 16.2.
For `CCN(CC)CCNC(=O)c1c(C)[nH]c(/C=C2\C(=O)Nc3ccc(-c4csc(-c5ccccc5)n4)cc32)c1C` [Amcasertib] the same measures were 2.5 and 1.
As for `CCC1(c2ccc(N)cc2)CCC(=O)NC1=O` (configuration not stated) [Aminoglutethimide], the values for the drug sensitivity score in the assay on MDA-MB-453 [1] and in the assay with MDA-MB-453 [2] were 0 and 1.3, respectively.
With `COc1cc(NS(C)(=O)=O)ccc1Nc1c2ccccc2nc2ccccc12` [Amsacrine], the drug sensitivity score with MDA-MB-453 [1] worked out at 1.2; with MDA-MB-453 [2], 2.
The matching figures for `S=C(NCc1ccc2c(c1)OCO2)N1CCN(c2ncnc3c2oc2ccccc23)CC1` [Amuvatinib]: 3.3 and 0.3.
As to `O=C1CN2Cc3c(ccc(Cl)c3Cl)N=C2N1` [Anagrelide], the drug sensitivity score in the assay with MDA-MB-453 [1] and in the assay with MDA-MB-453 [2] was 0 throughout.
For the molecule `CC(C)(C#N)c1cc(Cn2cncn2)cc(C(C)(C)C#N)c1` [Anastrozole], the drug sensitivity score with MDA-MB-453 [1] and with MDA-MB-453 [2] was 0 each time.
Consider `CNC(=O)c1ccc(N2C(=S)N(c3cnc(C#N)c(C(F)(F)F)c3)C(=O)C23CCC3)cc1F` [Apalutamide], for which the drug sensitivity score in the assay on MDA-MB-453 [1] and in the assay on MDA-MB-453 [2] was 0 each time.
For `N#CC1(c2ccc(NC(=O)c3cccnc3NCc3ccncc3)cc2)CCCC1` [Apatinib], the drug sensitivity score with MDA-MB-453 [1] came to 0.7; with MDA-MB-453 [2], 0.
In the case of `O=C(Nc1ccc(OC(F)(F)Cl)cc1)c1cnc(N2CC[C@@H](O)C2)c(-c2cc[nH]n2)c1` [Asciminib], the drug sensitivity score worked out at 3.4 in the assay on MDA-MB-453 [1] and 1.2 in the assay with MDA-MB-453 [2].
With `CC(C)c1c(C(=O)Nc2ccccc2)c(-c2ccccc2)c(-c2ccc(F)cc2)n1CC[C@@H](O)C[C@@H](O)CC(=O)O` [Atorvastatin], the drug sensitivity score in the assay on MDA-MB-453 [1] and in the assay with MDA-MB-453 [2] was 0 throughout.
For `CC(=O)OC[C@H]1O[C@@H]([S-])[C@H](OC(C)=O)[C@@H](OC(C)=O)[C@@H]1OC(C)=O.CCP(CC)CC.[Au+]` [Auranofin], the drug sensitivity score with MDA-MB-453 [1] is 8.9; in the assay on MDA-MB-453 [2] it was 8.8.
Consider `CNC(=O)c1ccccc1Sc1ccc2c(/C=C/c3ccccn3)n[nH]c2c1` [Axitinib], for which the drug sensitivity score with MDA-MB-453 [1] came out at 2.2; with MDA-MB-453 [2], 0.3.
Take `Nc1ncn([C@@H]2O[C@H](CO)[C@@H](O)[C@H]2O)c(=O)n1` [Azacitidine]: the results for the drug sensitivity score in the assay on MDA-MB-453 [1] and with MDA-MB-453 [2] were 0.5 and 0.4, respectively.
For `Cc1cc(-c2nc(-c3ccc(OC(F)(F)F)cc3)no2)nn1Cc1ccnc(N2CCN(C3CC3)CC2)c1` [BAY 87-2243], the values for the drug sensitivity score in the assay on MDA-MB-453 [1] and in the assay with MDA-MB-453 [2] were 12.2 and 10.4, respectively.
Consider `Nc1nc(Nc2ccc3c(c2)CC[C@@H](N2CCCC2)CC3)nn1-c1cc2c(nn1)-c1ccccc1CCC2` [BGB324], for which the drug sensitivity score in the assay with MDA-MB-453 [1] was 3.2; in the assay on MDA-MB-453 [2], 0.2.
The matching figures for `O=C1CCc2c(Oc3ccc4c(c3)[C@@H]3[C@H](O4)[C@H]3c3nc4cc(C(F)(F)F)ccc4[nH]3)ccnc2N1` [BGB-283]: 3.6 and 1.3.
As to `CC[C@@H]1C(=O)N(C)c2cnc(Nc3ccc(C(=O)NC4CCN(C)CC4)cc3OC)nc2N1C1CCCC1` [BI 2536], the values for the drug sensitivity score in the assay with MDA-MB-453 [1] and in the assay on MDA-MB-453 [2] were 10.4 and 9.2, respectively.

These data come from the supplement of paper PMC7224384.
